Earlier results, collected in US8741342B2, “Pharmaceutical compositions comprising entacapone, levodopa, and carbidopa” (Wockhardt Research Centre, priority 2006, dated 2014).

Conditions: qualitative description in background section

SMILES	solubility in water
C[C@@](Cc1ccc(O)c(O)c1)(NN)C(=O)O [Carbidopa, (−)-L-(α-hydrazino-(α-methyl-β-(3,4-dihydroxybenzene)propanoic acid monohydrate]	slightly soluble in water
N[C@@H](Cc1ccc(O)c(O)c1)C(=O)O [Levodopa, (−)-L-α-amino-β-(3,4-dihydroxybenzene)propanoic acid]	slightly soluble in water
